Here are results for 16 compounds from PubChem BioAssay (NCI).

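Tested at 5 concentrations; 48 h exposure; 96-well plates; endpoints linearly interpolated, else capped at highest concentration. GI50 marks 50% less growth. Definition used: TGI = concentration required for complete inhibition of growth.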

Holding throughout (experiment): NCI anticancer screen, dose series, 48 h
For test [1], the system named is CAKI-1 renal.
The subject of test [2] is HCT-15 colon.
For test [3], the system named is IGROV1 ovarian.
Test [4] relates to KM12 colon.
For test [5], the system named is M14 melanoma.
The test system of test [6] is MOLT-4 leukemia.
The subject of test [7] is NCI/ADR-RES ovarian.
Test [8] has as its system SF-268 CNS.
Test [9] concerns SK-MEL-2 melanoma.
Test [10] deals with UACC-257 melanoma.

For `CCn1c2ccccc2c2cc(/C=C(/C#N)C(N)=O)ccc21`, the GI50 in [1] was 5.53 µM; in test [2], 14.8 µM; in [3], 2.87 µM; in test [4], 13.5 µM; in test [5], 13.4 µM; in test [6] it was 6.66 µM. Besides, the GI50 in [7] is 11.2 µM; in [8] it was 19.9 µM; in [9], 11.4 µM; in [10], 4.18 µM. The TGI is > 77.9 µM in [1]; > 100 µM in [2]; > 51.9 µM in test [3]; > 100 µM in test [4]; > 83.6 µM in test [5]; > 100 µM in [6]. Besides, the TGI in test [7] is 88.1 µM; in [8] it was > 100 µM; in [9], > 60.4 µM; in test [10] it was 15.8 µM.
With `CCOc1nc(N)nc(C)c1N=Nc1ccc(Cl)cc1`, the TGI in test [1], in [2], in [3], in test [4], in test [5] and in test [6] was > 100 µM each time. Further, the TGI in test [7], in [8], in test [9] and in [10] was > 100 µM each time.
On to `COc1cc2c(c(OC)c1OC)-c1ccc(SC)c(=O)cc1[C@@H](NC1OC(CO)C(O)C(O)C1O)CC2` (stereo partly drawn), for which the GI50 in test [1] was 0.0727 µM; in test [2], 0.0374 µM; in test [3], 0.0635 µM; in [4], 0.024 µM; in test [5], 0.0311 µM; in [6] it was 0.0418 µM. The GI50 in [7] was 0.0556 µM; in test [8], 0.049 µM; in test [9] it was 0.0237 µM; in test [10], 0.447 µM. The TGI in test [1], in test [2], in test [3], in test [5], in [6] and in [7] was > 100 µM in each case. The TGI in test [8] was > 100 µM; in test [9], 0.081 µM; in test [10], > 100 µM.
As to `CCN1C(=O)N(CC)C2C1NN=c1s/c(=C3\C(=O)N(CCc4ccccc4)c4ccccc43)c(=O)n12` (stereo not drawn), the GI50 was 0.65 µM in test [1]; 0.351 µM in [2]; 0.672 µM in test [3]; 0.38 µM in test [4]; 0.478 µM in [5]; 1.49 µM in test [6]. The GI50 in test [7] is 0.378 µM; in test [8], 1.95 µM; in test [9], 1.26 µM; in [10], 3.77 µM. For the same compound, the TGI in test [1] is 3.11 µM; in test [2], > 34.2 µM; in test [4], 11.2 µM; in test [5] it was 12.5 µM; in test [6], > 100 µM; in [7] it was 6.48 µM. In addition, the TGI in test [8] was 27.4 µM; in [9] it was 12.3 µM; in [10], > 100 µM.
On to `COc1ccc(/C=N/NC(=O)Cn2c(-c3ccc(S(C)(=O)=O)cc3)nc3cc(Cl)ccc32)cc1`, for which the GI50 in [1] was 4.14 µM; in test [2] it was 0.653 µM; in test [3], 3.63 µM; in test [4], 0.979 µM; in [5], 0.505 µM; in [6] it was 2.11 µM. In addition, the GI50 in [7] was 0.956 µM; in [8], 2.76 µM; in test [9], 1.13 µM; in [10] it was > 50 µM. Besides, the TGI in test [1], in test [2], in test [3], in test [4], in test [5] and in test [6] was > 50 µM in each case. Further, the TGI in test [7], in [8], in test [9] and in test [10] was > 50 µM throughout.
For `Nc1ccc(-c2nc3ccccc3[nH]2)c2ccccc12`, the GI50 was 2.23 µM in [1]; 6.35 µM in [2]; 3.36 µM in test [3]; 1.92 µM in test [4]; 2.73 µM in test [5]; 3.44 µM in [6]. The GI50 in test [7] was 2.08 µM; in [8], 5.93 µM; in test [9], 14.2 µM; in [10], 6.46 µM. Also, the TGI is > 53.7 µM in [1]; 20.8 µM in test [2]; 42.6 µM in test [3]; 16.1 µM in test [4]; 17.6 µM in test [5]; > 100 µM in [6]. In addition, the TGI in test [7] is 7.37 µM; in test [8], > 100 µM; in test [9] it was > 100 µM; in test [10], > 100 µM.
On to `N#Cc1c(N)[nH]c2ccc(Sc3ccccc3)cc12`, for which the TGI in [1] came out at 9.27 µM; in [2], 14.9 µM; in [3], 8.36 µM; in test [4], 10.7 µM; in test [5] it was 3.5 µM; in [6], 11.2 µM. Besides, the TGI in [7] is 10.2 µM; in test [8], 15.4 µM; in test [9], 17.5 µM; in test [10] it was 29.5 µM.
`O=C(Oc1cccnc1)c1ccsc1Nc1ccnc(C(F)(F)F)c1`: the GI50 was 3.82 µM in [1]; 3.49 µM in test [2]; 5.24 µM in [3]; 3.38 µM in test [4]; 9.39 µM in test [5]; 4.39 µM in test [6]. For the same compound, the GI50 in test [7] was 4.62 µM; in test [8] it was 4.54 µM; in [9], 4.19 µM; in test [10], 10.5 µM. Also, the TGI was > 100 µM in test [1]; > 100 µM in test [2]; > 100 µM in test [3]; 10.3 µM in [4]; > 100 µM in test [5]; 35 µM in [6]. Also, the TGI in [7] was > 100 µM; in test [8] it was > 100 µM; in [9] it was > 100 µM; in test [10], 23.4 µM.
As to `N#CN1CC[C@H](C(=O)Nc2ncc(-c3ccncc3)s2)C1`, the GI50 in [1] is 0.101 µM; in [2], < 0.021 µM; in [3], 0.0351 µM; in test [4] it was < 0.0213 µM; in test [5] it was 0.0379 µM; in test [6], < 0.01 µM. For the same compound, the GI50 in test [7] was < 0.0242 µM; in test [8] it was 0.127 µM; in test [9], < 0.01 µM; in test [10] it was 0.605 µM. Also, the TGI in test [1] was > 83.2 µM; in test [2], > 100 µM; in test [3], 68.4 µM; in test [4], 3.44 µM; in test [5], 2.1 µM; in [6], 3.8 µM. For the same compound, the TGI is > 100 µM in test [7], 6.96 µM in [8], 0.0976 µM in test [9] and 6.91 µM in test [10].
For `CN(CC(N)=O)C(=O)N(CCCl)N=O`, the TGI in test [1], in [2], in [3], in test [4], in test [5] and in [6] was > 100 µM in each case. Also, the TGI in test [7], in test [8], in [9] and in test [10] was > 100 µM in each case.
On to `Cc1nc2ccccc2c(/C=C/c2ccc(Br)cc2)c1C(=O)/C=C/c1ccccc1`, for which the GI50 in test [1] was 1.26 µM; in [2], 1.31 µM; in test [3], 1.29 µM; in test [4] it was 1.95 µM; in test [5], 1.85 µM; in [6] it was 0.696 µM. In addition, the GI50 in test [7] is 2.13 µM; in [8], 2.14 µM; in test [9], 1.75 µM; in test [10] it was 1.68 µM. In addition, the TGI worked out at 2.62 µM in test [1]; 3.71 µM in [2]; 4.98 µM in test [3]; 4.37 µM in test [4]; 4.48 µM in test [5]; 5.06 µM in test [6]. In addition, the TGI in [7] turned out to be 5.31 µM; in [8] it was 6.38 µM; in test [9] it was 3.46 µM; in [10], 3.22 µM.
On to `O=[N+]([O-])c1cc(S(=O)(=O)Oc2ccccc2)ccc1Cl`, for which the GI50 was 1.53 µM in test [1]; 3.56 µM in test [2]; 1.77 µM in test [3]; 1.47 µM in test [4]; 2.06 µM in test [5]; 2.17 µM in [6]. Moreover, the GI50 in test [7] was 8.27 µM; in [8], 1.83 µM; in test [9], 10.7 µM; in test [10] it was 1.6 µM. Moreover, the TGI is 2.89 µM in test [1]; 12.5 µM in [2]; 3.22 µM in test [3]; 2.89 µM in test [4]; 4.28 µM in test [5]; 45.1 µM in test [6]. The TGI in [7] turned out to be 45.3 µM; in test [8], 3.4 µM; in [9] it was 26.1 µM; in [10] it was 3.1 µM.
On to `CC(C)(C)c1ccc(C(=O)Nc2sc3c(c2C(N)=O)CCC(=O)C3)cc1`, for which the GI50 was 0.348 µM in test [1]; 0.408 µM in test [2]; 0.684 µM in test [3]; 0.55 µM in [4]; 0.413 µM in [5]; 0.705 µM in test [6]. The GI50 is 1.47 µM in test [7], 1.11 µM in test [8], 1.9 µM in [9] and 1.72 µM in [10]. Further, the TGI in test [1] is 1.38 µM; in test [2], 2.38 µM; in test [3], 2.29 µM; in test [4], 2.34 µM; in test [5], 1.57 µM; in test [6], 3.45 µM. Besides, the TGI stood at 5.53 µM in [7], 3.61 µM in test [8], 4.73 µM in test [9] and 4.19 µM in test [10].
In the case of `CCN1C(=O)N(CC)C2C1NN=c1s/c(=C\c3ccccc3Br)c(=O)n12` (stereo not drawn), the GI50 is 0.0242 µM in [1]; 0.0303 µM in test [2]; 0.0408 µM in [3]; 0.0236 µM in test [4]; 0.0318 µM in test [5]; 0.0399 µM in test [6]. The GI50 was 0.0228 µM in test [7], 0.0612 µM in test [8], 0.308 µM in test [9] and 9.29 µM in test [10]. Moreover, the TGI in [1] turned out to be 26.3 µM; in test [2], 12.6 µM; in test [3], 21.8 µM; in test [4] it was 1.5 µM; in [5], 13.8 µM; in [6], 29.5 µM. Moreover, the TGI in test [7] was 15.3 µM; in test [8], > 59.5 µM; in test [9], 25.5 µM; in test [10], 33.3 µM.
On to `CC1=CC(=O)C(O)C2(C)C1CC(O)C13COC4(C)C(OC(=O)C41)C(O)C23` (stereo not drawn), for which the GI50 was 10.4 µM in test [1]; 4.47 µM in test [2]; 12.3 µM in [3]; 7.41 µM in test [4]; 4.14 µM in test [5]; 0.0398 µM in [6]. In addition, the GI50 in test [7] is 18.2 µM; in test [8], 12.6 µM; in test [9], 6.36 µM; in test [10], 9.57 µM. For the same compound, the TGI came out at 54.4 µM in [1]; 23.4 µM in [2]; 45.8 µM in [3]; 33.6 µM in [4]; 15.4 µM in [5]; 7.34 µM in [6]. In addition, the TGI in [7] was 61.3 µM; in test [8] it was 52.5 µM; in test [9] it was 29.5 µM; in [10], 38.8 µM.
Regarding `CCN(CCO)CC(C)Nc1ccc([N+](=O)[O-])c2sc3ccccc3c(=O)c12` (stereo not drawn), the GI50 in test [1] was 0.304 µM; in test [2], 1.76 µM; in test [3], 0.34 µM; in test [4] it was 1.47 µM; in test [5] it was 1.54 µM; in test [6] it was 0.361 µM. Besides, the GI50 in test [7] was 1.6 µM; in test [8], 1.98 µM; in test [9] it was 1.23 µM; in test [10], 1.47 µM. Further, the TGI in test [1] is 1.09 µM; in test [2] it was > 100 µM; in [3], 1.6 µM; in test [4], 4 µM; in test [5] it was 3.45 µM; in test [6], 2.89 µM. Also, the TGI in test [7] is 5.86 µM; in [8], 11.5 µM; in test [9], 3.64 µM; in [10] it was 2.85 µM.
